Source: ChEMBL document CHEMBL1159040, “Synthesis and evaluation of phenylequine for antimalarial activity in vitro and in vivo” (Bioorg Med Chem Lett, 2010)

Columns and labels:
Plasmodium falciparum [1] = test: Antiplasmodial activity against chloroquine-resistant Plasmodium falciparum K1 infected in human O+ erythrocytes by parasite LDH assay; assay type: functional, organism-based
Plasmodium falciparum [2] = test: Antiplasmodial activity against chloroquine-sensitive Plasmodium falciparum D10 infected in human O+ RBC by parasite LDH assay; assay type: functional, organism-based
KB = test: Cytotoxicity against human KB cells; assay type: cell-based
Plasmodium yoelii [3] = test: Antiplasmodial activity in chloroquine-nonsensitive Plasmodium yoelii infected BALB/c mice (Mus musculus) assessed as inhibition of parasitaemia at 1 mg/kg, intraperitoneally daily once for 4 days; assay type: functional; conditions: ip, 96 h, route intraperitoneal
Plasmodium yoelii [4] = test: Antiplasmodial activity in chloroquine-nonsensitive Plasmodium yoelii infected BALB/c mice (Mus musculus) assessed as inhibition of parasitaemia at 10 mg/kg, intraperitoneally daily once for 4 days; assay type: functional; conditions: ip, 96 h, route intraperitoneal
Plasmodium berghei [5] = test: Antiplasmodial activity in chloroquine-sensitive Plasmodium berghei ANKA infected BALB/c mice (Mus musculus) assessed as mean parasitemia at 10 mg/kg, intraperitoneally daily once for 4 days; assay type: functional; conditions: route intraperitoneal
Plasmodium yoelii [6] = test: Antiplasmodial activity in chloroquine-nonsensitive Plasmodium yoelii infected BALB/c mice (Mus musculus) assessed as inhibition of parasitaemia at 3 mg/kg, intraperitoneally daily once for 4 days; assay type: functional; conditions: route intraperitoneal
Plasmodium berghei [7] = test: Antiplasmodial activity in chloroquine-sensitive Plasmodium berghei ANKA infected BALB/c mice (Mus musculus) assessed as inhibition of parasitemia at 10 mg/kg, intraperitoneally daily once for 4 days; assay type: functional; conditions: ip, 96 h, route intraperitoneal
Plasmodium yoelii [8] = test: Antiplasmodial activity in chloroquine-nonsensitive Plasmodium yoelii infected BALB/c mice (Mus musculus) assessed as inhibition of parasitaemia at 30 mg/kg, intraperitoneally daily once for 4 days; assay type: functional; conditions: route intraperitoneal
Plasmodium berghei [9] = test: Antiplasmodial activity in chloroquine-sensitive Plasmodium berghei ANKA infected BALB/c mice (Mus musculus) assessed as inhibition of parasitemia at 30 mg/kg, intraperitoneally daily once for 4 days; assay type: functional; conditions: route intraperitoneal
Plasmodium berghei [10] = test: Antiplasmodial activity in chloroquine-sensitive Plasmodium berghei ANKA infected BALB/c mice (Mus musculus) assessed as mean parasitemia at 30 mg/kg, intraperitoneally daily once for 4 days; assay type: functional; conditions: route intraperitoneal

| SMILES | IC50 (Plasmodium falciparum [1]) | IC50 (Plasmodium falciparum [2]) | Activity (KB) | inhibition in vivo at 10 mg/kg (Plasmodium yoelii [4]) | inhibition (INH) (Plasmodium yoelii [6]) | Activity (Plasmodium berghei [10]) | other results |
| --- | --- | --- | --- | --- | --- | --- | --- |
| CN(C)Cc1ccccc1CNc1ccnc2ccccc12 | 70.3 nM | 106 nM | 8.5 µM | – | – | – | – |
| CN(C)Cc1ccccc1CNCCNc1ccnc2cc(Cl)ccc12 | 9.8 nM | 19.5 nM | 14 µM | – | – | – | – |
| CCN(CC)CCCC(C)Nc1ccnc2cc(Cl)ccc12.O=P(O)(O)O.O=P(O)(O)O (stereo not drawn) [CHLOROQUINE PHOSPHATE] | – | – | – | 98.1% | – | – | inhibition in vivo at 1 mg/kg (Plasmodium yoelii [3]): 32.7%; Activity (Plasmodium berghei [5]): 0%; inhibition in vivo at 3 mg/kg (Plasmodium yoelii [6]; Plasmodium yoelii, ip, 96 h): 32.7%; inhibition in vivo at 10 mg/kg (Plasmodium berghei [7]): 100% |
| CN(C)Cc1ccccc1CNc1ccnc2cc(Cl)ccc12.O=C(O)CC(O)(CC(=O)O)C(=O)O [PHENYLEQUINE DICITRATE] | – | – | – | – | 8.9% | – | inhibition (INH) (Plasmodium yoelii [8]): 99.6% |
| CN(C)Cc1ccccc1CNc1ccnc2cc(Cl)ccc12.Cl.Cl [PHENYLEQUINE DIHYDROCHLORIDE] | – | – | – | 99.7% | 94.5% | 0% | inhibition in vivo at 30 mg/kg (Plasmodium berghei [9]; Plasmodium berghei, ANKA, ip, 96 h): 100%; inhibition in vivo at 30 mg/kg (Plasmodium yoelii [8]; Plasmodium yoelii, ip, 96 h): 99.5% |
| CN(C)Cc1ccccc1CNc1ccnc2cc(Cl)ccc12 [PHENYLEQUINE] | 6.9 nM | 13.2 nM | 70 µM | – | – | 0% | inhibition (INH) (Plasmodium berghei [9]): 100% |
